# Like-named read-outs stand apart in the source and are kept apart here.
# Columns and labels:
# [1] = molecular target: T1, CB1 receptor (Rattus norvegicus, UniProt P20272); test: Radioligand displacement in whole rat brain (CB1) membrane preparations; type: binding
# T1 construct: Whole rat brains or dissected regions from live CD rats; tissue Charles River or Pel-Freez Biologicals; host or cells: whole rat brain (CD rats), P2 membrane
# Source text: CB1 receptor affinity in rat brain.
# Methods—membrane preparation from brain. The methods for tissue preparation are essentially those described by Devane et al. (1988) as modified by Compton et al. (1993) and later by Thomas et al. (1998). Whole rat brains or dissected regions from live CD rats from Charles River or Pel-Freez Biologicals (Rogers, Ark.), or human brain sections obtained from the National Disease Research Institute, were allowed to thaw to room temperature on ice. Both whole brain and dissected brain regions were used because different brain regions may express different cannabinoid receptor subtypes (Skaper et al., 1996; Thomas et al., 1998). The tissue was homogenized with a Kontes Potter-Elvehjem glass-Teflon grinding system (Fisher Scientific, Springfield, N.J.) in buffer 1 (320 mM sucrose, 2 mM EDTA, 5 mM MgCl2. The homogenate was centrifuged at 1600 g for 10 min. The supernatant was saved and combined with the two subsequent supernatants obtained from washing and 1600 g centrifugation of the P1 pellet. The combined supernatant fractions were then centrifuged at 39,000 g for 15 min. The P2 pellet was resuspended in 50 mL of buffer 2 (50 mM Tris.HCl, 2 mM EDTA, 5 mM MgCl2, pH 7.0), incubated at 37° C. for 10 min, then centrifuged at 23,000 g for 10 min. The P2 membrane was resuspended in 50 mL of buffer 2, incubated at 30° C. for 40 min, then centrifuged at 11,000 g for 15 min. The final wash-treated P2 pellet was resuspended in assay buffer 3 (50 mM Tris.HCl, 1 mM EDTA, 3 MM MgCl2, pH 7.4). Protein concentrations were determined by the method of Bradford (1976) using Coomassie brilliant blue dye (Bio-Rad, Richmond, Calif.) and BSA standards (bovine serum albumin, fatty acid free, Sigma Chemical Co., St. Louis, Mo.) prepared in assay buffer 3. The membrane preparation was divided into aliquots and stored at −80° C. For use in the binding assay, an aliquot of frozen membranes was thawed on ice and diluted to a concentration of ca. 0.2 mg/mL in assay buffer.
# Methods—binding assay in brain membrane preparation. The methods for ligand binding are essentially those described by Devane et al. (1988) with the exception that we used a filtration assay. […] All cannabinoid analogs were prepared by suspension in buffer A from a 1-5 mg/mL ethanolic stock. Following incubation at 30° C. for 1 h, binding was terminated by vacuum filtration through pretreated filters in a 96-well sampling manifold (Millipore, Bedford, Mass.). Reaction vessels were washed at least 3 times with 1 mL of ice cold buffer B (50 mM Tris.HCl, 1 mg/mL BSA). The filter plates were air-dried and sealed on the bottom. Liquid scintillant was added to the wells and the top sealed. After incubating the plates in cocktail for at least 2 h, the radioactivity present was determined by liquid scintillation spectrometry. Assays were done in duplicate, and results represent the combined data of three to six independent experiments. All assays were performed in polypropylene test tubes. The GF/C glassfiber filter plates (Packard, Meriden, Conn.) were pretreated in buffer B for at least 1 h.
# (§1) Data analysis. Saturation and displacement data were analyzed by unweighted nonlinear regression of receptor binding data. For displacement studies, curve-fitting and IC50 calculation were done with GraphPad Prism (GraphPad Software, Inc., San Diego, Calif.), which fits the data to one and two-site models and compares the two fits statistically. A similar approach was used for the analysis of isotherm data for calculation of Kd's. A two-site fit was accepted only if it was statistically significant (p<0.05) and the following results were not observed:
# (§2) IC50 values were then converted to Ki values by reported methods (Cheng and Prusoff, 1973). The statistical evaluation of curve-fitting data allowed for a non-arbitrary conclusion based on the displacement data.
# [2] = molecular target: T2, human CB1 receptor (Homo sapiens, UniProt P21554); test: Radioligand displacement in human CB1 receptor-transfected cells (HEK-293); type: binding
# T2 construct: expressed in transfected cells; host or cells: HEK-293
# Procedure: Human CB1 receptor affinity. The alkyl amide analogs of the present invention were examined using transfected cell lines expressing the human CB1 receptor (Table 3).
# (§3) Methods—binding assay in transfected cell lines. The methods used for performing binding assays in transfected cells expressing human CB1 or CB2 receptors are those used above. The CB1 receptor involved a HEK-293 expression system whereas the CB2 receptor was expressed in CHO-K1 cells. […] The incubations and separations were then performed as described above for rat brain membrane preparations.
# as §1, §2
# [3] = molecular target: T3, human CB2 receptor (Homo sapiens, UniProt P34972); test: Displacement of 3H-CP55,940 in human CB2 receptor-transfected cells (CHO-K1); type: binding; details: radioligand 3H-CP55940, Tables 6 and 7
# T3 construct: expressed in transfected cells; host or cells: CHO-K1
# Procedure: Human CB2 receptor affinity. The relative selectivity of the analogs for CB1 versus CB2 receptors varied modestly regardless of the structural modifications examined to date.
# as §3, §1, §2
# [4] = molecular target: T4, G-protein-linked cannabinoid receptors (Rattus norvegicus, UniProt P20272); test: GTP-γ-[35S] binding in whole rat brain; type: biochemical; details: whole rat brain membranes; for Emax, GTP-γ-[35S] in Whole Rat Brain: effects reported as percent change from basal; for EC50: inverse agonist/antagonist activity, read-out: EC50, GTP-γ-[35S] in Whole Rat Brain
# T4 construct: tissue Charles River or Pel-Freez Biologicals; host or cells: whole rat brain crude membrane homogenate
# Source text: Cannabinoid receptor-mediated alteration in GTP-γ-[^35S] binding.
# Introduction. The purpose of this assay was to characterize the functional activity of lead compounds identified by the radioligand competition binding assays described above. Data from the GTP-γ-[^35S] binding assay was used to determine if a compound was an agonist, antagonist or inverse agonist at G-protein-linked cannabinoid receptors. Agonist binding to a G-protein-linked receptor results in an increased affinity of the G-protein α-subunit for GTP relative to GDP. Eventually, an active αGTP complex forms to complete the stimulus-effector coupling. The α-subunit has intrinsic GTPase activity which generates a free α-subunit which can recombine with the β- and γ-subunits readying the G-protein for another signal transduction cycle. In the current assay, GTP-γ-[^35S] cannot be hydrolyzed by the α-subunit. Thus, the amount of bound GTP-γ-[^35S] is a marker for G-protein activation. In this assay, an agonist increases basal GTP-γ-[^35S] binding, an inverse agonist decreases basal binding and basal binding would be unaffected by an antagonist.
# Experimental Design. The specific binding of GTP-γ-[^35S], in the absence of test compound, was termed “basal” activity. Test compounds were characterized as agonist, antagonist, or inverse agonist based on their effect on basal activity. […] The concentrations spanned two orders of magnitude because affinity may not be related to efficacy. […] Effects of the test compounds are reported as the percent change from basal. More thorough dose-response analysis may be run to determine, for example, if a compound is a full or partial agonist.
# Methods. […] In a final volume of 0.5 mL, each assay tube contained: 0.02 mg crude membrane homogenate (0.1 mL), 200 μM GDP (0.05 mL; to reduce basal G-protein activity), 0.1 nM GTP-γ-[^35S] (0.05 mL) and several concentrations of test compound (0.05 mL) or an equivalent volume of vehicle (used for determination of total binding). Nonspecific binding was determined in the presence of 100 μM unlabeled GTP-γ-S (0.05 mL). Duplicate samples were incubated for 1 h at 30° C. Since this assay is amenable for use with high throughput screening methods, the binding assays were run using a 96-well plate format. Specific binding was calculated as total binding-nonspecific binding.
# [5] = Ki, displacement of 3H-CP55940, whole rat brain, 3H-CP55940, Table 4, parallel synthesis analogs, n = 1, concentration assumes 100% yield
# [6] = Ki, displacement of 3H-SR141716A, whole rat brain, 3H-SR141716A, Table 4, parallel synthesis analogs, n = 1, concentration assumes 100% yield
# [7] = Ki, displacement of 3H-WIN55212-2, whole rat brain, 3H-WIN55212-2, Table 4, parallel synthesis analogs, n = 1, concentration assumes 100% yield
# [8] = whole rat brain, 3H-CP55940, Table 4, parallel synthesis analogs, n = 1
# [9] = whole rat brain, 3H-SR141716A, Table 4, parallel synthesis analogs, n = 1
# [10] = whole rat brain, 3H-WIN55212-2, Table 4, parallel synthesis analogs, n = 1
# [11] = displacement of 3H-CP55940, human CB1 transfected cells, 3H-CP55940, Table 5, parallel synthesis analogs, concentration assumes 100% yield
# [12] = displacement of 3H-SR141716A, human CB1 transfected cells, 3H-SR141716A, Table 5, parallel synthesis analogs, concentration assumes 100% yield
# [13] = displacement of 3H-WIN55212-2, human CB1 transfected cells, 3H-WIN55212-2, Table 5, parallel synthesis analogs, concentration assumes 100% yield
# [14] = human CB1 transfected cells, 3H-CP55940, Table 5, parallel synthesis analogs
# [15] = human CB1 transfected cells, 3H-SR141716A, Table 5, parallel synthesis analogs
# [16] = human CB1 transfected cells, 3H-WIN55212-2, Table 5, parallel synthesis analogs
# [17] = whole rat brain membranes, radioligand 3H-CP55940, Tables 1 and 2
# [18] = whole rat brain membranes, radioligand 3H-SR141716A, Tables 1 and 2
# T3 sequence (P34972 whole entry): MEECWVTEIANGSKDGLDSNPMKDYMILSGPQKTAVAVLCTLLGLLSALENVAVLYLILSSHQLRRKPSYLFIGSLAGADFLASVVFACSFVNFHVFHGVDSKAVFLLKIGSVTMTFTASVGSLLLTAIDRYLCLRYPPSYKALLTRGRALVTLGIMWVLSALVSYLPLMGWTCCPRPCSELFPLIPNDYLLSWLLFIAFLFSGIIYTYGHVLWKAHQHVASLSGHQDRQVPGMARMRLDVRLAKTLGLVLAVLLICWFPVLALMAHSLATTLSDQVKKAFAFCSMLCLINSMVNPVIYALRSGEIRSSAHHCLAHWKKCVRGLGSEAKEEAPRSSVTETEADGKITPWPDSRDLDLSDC
# T2 sequence (P21554 whole entry): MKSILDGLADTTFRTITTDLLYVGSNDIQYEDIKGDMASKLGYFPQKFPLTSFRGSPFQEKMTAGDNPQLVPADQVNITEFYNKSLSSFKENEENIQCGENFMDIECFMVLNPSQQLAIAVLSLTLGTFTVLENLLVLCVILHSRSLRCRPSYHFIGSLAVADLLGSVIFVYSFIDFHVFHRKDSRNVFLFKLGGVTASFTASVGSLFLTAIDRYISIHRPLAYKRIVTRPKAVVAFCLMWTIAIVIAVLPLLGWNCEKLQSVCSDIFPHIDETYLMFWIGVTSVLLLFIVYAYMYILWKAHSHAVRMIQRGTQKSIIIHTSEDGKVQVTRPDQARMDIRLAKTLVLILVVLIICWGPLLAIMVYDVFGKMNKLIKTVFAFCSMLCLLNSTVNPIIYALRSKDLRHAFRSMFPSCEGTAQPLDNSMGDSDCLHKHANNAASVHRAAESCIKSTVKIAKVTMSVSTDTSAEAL
# T4 sequence (P20272 whole entry): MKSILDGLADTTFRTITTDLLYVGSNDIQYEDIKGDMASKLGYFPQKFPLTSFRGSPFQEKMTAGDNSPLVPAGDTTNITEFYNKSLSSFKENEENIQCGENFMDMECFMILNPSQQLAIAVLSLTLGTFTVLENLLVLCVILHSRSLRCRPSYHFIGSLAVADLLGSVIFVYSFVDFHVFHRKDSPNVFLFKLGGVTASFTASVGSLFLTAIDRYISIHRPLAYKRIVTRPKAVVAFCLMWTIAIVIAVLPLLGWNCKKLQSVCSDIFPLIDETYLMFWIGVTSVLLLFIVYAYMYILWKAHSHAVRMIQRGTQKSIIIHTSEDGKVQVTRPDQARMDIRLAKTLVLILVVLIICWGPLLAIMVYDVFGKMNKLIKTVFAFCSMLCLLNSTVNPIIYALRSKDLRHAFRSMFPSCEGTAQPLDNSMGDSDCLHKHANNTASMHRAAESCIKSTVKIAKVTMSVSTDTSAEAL
# T1 sequence (P20272 whole entry): as above
smiles,measurement,setting,value
CCCCCCCCCCCCCNC(=O)c1nn(-c2ccc(Cl)cc2Cl)c(-c2ccc(Cl)cc2)c1C [BT-6],Ki,[1]; [5],492 nM
same,Ki,[1]; [6],172 nM
same,Ki,[1]; [7],495 nM
same,"Max. Disp. %, 3H-CP55940",[1]; [8],79.3%
same,"Max. Disp. %, 3H-SR141716A",[1]; [9],97.6%
same,"Max. Disp. %, 3H-WIN55212-2",[1]; [10],80.5%
same,Ki,[2]; [11],201 nM
same,Ki,[2]; [12],4.2 nM
same,Ki,[2]; [13],173 nM
same,"Max. Disp. %, 3H-CP55940",[2]; [14],75.9%
same,"Max. Disp. %, 3H-SR141716A",[2]; [15],91.3%
same,"Max. Disp. %, 3H-WIN55212-2",[2]; [16],94.9%
CCCCCCCCCCCNC(=O)c1nn(-c2ccc(Cl)cc2Cl)c(-c2ccc(Cl)cc2)c1C [BT-7],Ki,[1]; [5],168 nM
same,Ki,[1]; [6],25.5 nM
same,Ki,[1]; [7],278 nM
same,"Max. Disp. %, 3H-CP55940",[1]; [8],86.4%
same,"Max. Disp. %, 3H-SR141716A",[1]; [9],83.8%
same,"Max. Disp. %, 3H-WIN55212-2",[1]; [10],90.3%
same,Ki,[2]; [11],45.6 nM
same,Ki,[2]; [12],5.2 nM
same,Ki,[2]; [13],11.7 nM
same,"Max. Disp. %, 3H-CP55940",[2]; [14],82.4%
same,"Max. Disp. %, 3H-SR141716A",[2]; [15],96.9%
same,"Max. Disp. %, 3H-WIN55212-2",[2]; [16],54.9%
Cc1c(C(=O)NO)nn(-c2ccc(Cl)cc2Cl)c1-c1ccc(Cl)cc1 [MF9725-131-25],Ki,"[1]; read-out: Ki, displacement of 3H-CP55940, whole rat brain membranes, radioligand 3H-CP55940, Tables 1 and 2",1690 nM
same,Ki,"[1]; read-out: Ki, displacement of 3H-SR141716A, whole rat brain membranes, radioligand 3H-SR141716A, Tables 1 and 2",1560 nM
same,"Max. Disp. %, 3H-CP55940",[1]; [17],58.4%
same,"Max. Disp. %, 3H-SR141716A",[1]; [18],65.7%
same,"Max. Disp. %, 3H-CP55940",[3]; human CB2 transfected cells,27.0%
same,Ki,"[3]; read-out: Ki, displacement of 3H-CP55940, human CB2 transfected cells",7820 nM
Cc1c(C(=O)NN2CCCCC2)nn(-c2ccccc2)c1-c1ccc(Cl)cc1 [MF9879-64-23],"Emax, GTP-γ-[35S] in Whole Rat Brain",[4],−47.2
same,EC50,[4],361000 nM
Cc1c(C(=O)NN2CCCCC2)nn(C2CCCCC2)c1-c1ccc(Cl)cc1 [MF9879-117-24],"Emax, GTP-γ-[35S] in Whole Rat Brain",[4],−71.7
same,EC50,[4],108000 nM
CCCCCCC(C)(C)NC(=O)c1nn(-c2ccc(Cl)cc2Cl)c(-c2ccc(Cl)cc2)c1C [MF10110-119-11],Ki,"[1]; Ki, displacement of 3H-CP55940, whole rat brain membranes, radioligand 3H-CP55940, Tables 1 and 2",181 nM
same,Ki,"[1]; Ki, displacement of 3H-SR141716A, whole rat brain membranes, radioligand 3H-SR141716A, Tables 1 and 2",21.6 nM
same,Ki,"[1]; Ki, displacement of 3H-WIN55212-2, whole rat brain membranes, radioligand 3H-WIN55212-2, Tables 1 and 2",10.4 nM
same,"Max. Disp. %, 3H-CP55940",[1]; [17],83.2%
same,"Max. Disp. %, 3H-SR141716A",[1]; [18],76.4%
same,"Max. Disp. %, 3H-WIN55212-2","[1]; whole rat brain membranes, radioligand 3H-WIN55212-2, Tables 1 and 2",72.2%
same,Ki,"[3]; Ki, displacement of 3H-CP55940, human CB2 transfected cells",16600 nM
same,"Max. Disp. %, 3H-CP55940",[3]; human CB2 transfected cells,52.8%
same,"Max. Disp. %, 3H-SR141716A",[2],99.9%
same,"Max. Disp. %, 3H-WIN55212-2",[2],86.5%
same,Ki,[2]; displacement of 3H-CP55940,32.7 nM
same,Ki,[2]; displacement of 3H-SR141716A,5 nM
same,Ki,[2]; displacement of 3H-WIN55212-2,14.4 nM
CCCCCCCn1nc(C(=O)NN2CCCCC2)c(C)c1-c1ccc(Cl)cc1 [MF10278-20-15],"Emax, GTP-γ-[35S] in Whole Rat Brain",[4],−85.7
same,EC50,[4],156000 nM
CCCCCCn1nc(C(=O)NN2CCCCC2)c(C)c1-c1ccc(Cl)cc1 [MF10278-22-16],"Emax, GTP-γ-[35S] in Whole Rat Brain",[4],−71.5
same,EC50,[4],74700 nM
Cc1c(C(=O)O)nn(-c2ccc(Cl)cc2Cl)c1-c1ccc(Cl)cc1 [SH9631-55],"Max. Disp. %, 3H-CP55940",[1]; [17],8.2%
same,"Ki, displacement of 3H-SR141716A",[1]; [18],Nr
same,"Max. Disp. %, 3H-SR141716A",[1]; [18],0%
same,"Ki, displacement of 3H-CP55940",[3]; human CB2 transfected cells,nr
same,"Max. Disp. %, 3H-CP55940",[3]; human CB2 transfected cells,0.0%

# Source: patent US6825209B2, “Compounds having unique CB1 receptor binding selectivity and methods for their production and use” (Research Triangle Institute, priority 2002, dated 2004)
